Data: US20260256764A1, “COMPOSITIONS AND METHODS FOR ORAL DELIVERY OF SUSTAINED RELEASE CRYSTALLINE PRX-3140” (NANOPHARMACEUTICS, INC., priority 2023, published 2026)

Tests used:
[1] = Forced degradation study (acid, base, 3% hydrogen peroxide), LC-UV-MS; format: physicochemical; details: 24 hours; for percent peak area at 250 nm, RRT 1.00 (purity of parent molecule) / percent peak area at 250 nm, RRT 1.05 (PRX-3140b): potassium salt
Protocol: Example 4—Crystalline PRX-3140 Potassium Salt Forced Degradation Study. Crystalline fine particle Form I of PRX-3140 potassium salt was subjected to a forced degradation study using acid, base, or hydrogen peroxide exposure for 24 hours. Samples were neutralized and analyzed using LC-UV-MS.
Sample Preparation: Crystalline fine particle Form I of PRX-3140 potassium salt, 50 mg, was weighed out into a 25 mL volumetric flask and taken to volume with water (2 mg/mL stock). One mL of stock was added to four, 4 mL vials. One mL of either 1N HCl, 1N NaOH, 3% H2O2, or DI Water (control) was added to the appropriate vial, mixed, and stored at room temperature for 24 hours. After storage, the samples of acid and base were neutralized by addition of 1 mL their counter solution. […] Samples were analyzed using LC-UV-MS.
Table 5 lists a comparison for the control, acid, base, and peroxide samples showing percent peak area versus relative retention time (RRT) at 250 nm. While some minor changes can be noted between the control with the acid and base samples, the overall purity (peak area) of the parent molecule is just slightly higher for the acid and base sample. Some of the minor impurities appear to be reacting with the acid or base, potentially reforming to the parent.

[2] = 30% peroxide degradation study; format: physicochemical; details: 18-hour exposure to 30% hydrogen peroxide; 250 nm
Protocol: […]. Sample was evaporated to dryness and analyzed using LC/UV/MS and NMR analysis. Two major degradants are noted in the LC/UV/MS.
[…]. The solvent is removed under vacuum at RT, then acetonitrile (5 mL) was added to the residue and evaporated to dryness at 40 degrees Celsius. […].
Two milligrams of the sample was weighed into a 4 mL vial. Two mL of 20/80 methanol/water was added to the vial and vortexed vigorously. FIG. 9A is a HPLC chromatogram of the H2O2 sample at 250 nm. Three major peaks are noted, including the parent molecule at 12.5 minutes. […]. Maximums are noted at 220, 250, and 320 nm. Chromatograms for all samples were collected at all three wavelengths with 250 nm as the primary wavelength based on lambda max. FIG. 10A is the UV spectra for the peak at 8.9 minutes. In comparison with the parent molecule, the high-end absorption is absent (320 nm). FIG. 10B is the UV spectra for the peak at 12.9 minutes. […]. An [M+H]+ is noted at 258.0 m/z with [M+H+NH3]+ at 275.1, [M+Na]+ at 280.1, and [2M+Na]+ at 537.1 m/z. It is noted that this is a fragile molecule and required the reduction of the Fragmentor Voltage from 150V down to 70V to see the protonated molecular ion. […] FIG. 11C is the mass spectra of the largest degradation product of PRX-3140b at 12.9 minutes, relative retention time (RRT) of 1.04 (compared to 1.05 in Example 4). […]

[3] = Photostability study (ICH Q1B), HPLC; format: physicochemical
Protocol: […]. Samples were exposed to ICH photostability guideline Q1B=1.2 million lux hours of cool, white fluorescent light & 200 watt hours/m2 of UVA light at […]. Samples were exposed for 2 days and tested using HPLC.
[…]. The light exposure was performed in a cabinet set at 25 degrees Celsius/60% RH.
[…]. Changes were evident for crystalline fine particle Form I of PRX-3140 potassium salt after exposure to UVA and white light. The sample changed color particularly on the upper exposed surface of the material and there were changes apparent in the HPLC data. […]. The single impurity profile met the specification (0.20) but significant changes were observed. There was an increase in the number of minor impurities, particularly in a region of the chromatogram between RRT 1.5 and 2.1. Total impurities increased from 0.20% in the control sample to 0.770 in the exposed sample. An impurity at RRT 1.83 which was not present before exposure to light was formed at 0.16% in the exposed sample. Other changes included a change in appearance of the material to a sticky solid and an increase in water content to 4.3% w/w.

blood glucose = test: Blood glucose levels after oral PRX-3140 potassium salt; format: in vivo, human; details: 15 mg orally, single dose, fed conditions, male volunteers
Protocol: Example 18—Blood Glucose Levels of Controls vs. Sustained-Release Oral PRX-3140 Potassium Salt Capsules. A Phase I, single dose escalation study under fed conditions was conducted in male volunteers with PRX-3140 potassium salt at the 15 mg dose level. […] The study was also conducted to examine the effects of PRX-3140 sustained-release capsule administration on the subjects' fasting and postprandial blood glucose concentrations. Subjects were monitored daily for vital signs (including blood pressure, heart rate, respiratory rate, and temperature) and adverse events. In addition, blood was drawn to assess glucose concentration. Glucose was tested within 60 minutes prior to meals in the morning and throughout the day at different timepoints.

[4] = system: more than 50 other receptors including GPCRs, ion channels and receptor tyrosine kinases; test: binding to other receptors tested
Excerpt: . The specific ligand binding to the receptors is defined as the difference between the total binding and the nonspecific binding determined in the presence of an excess of unlabelled ligand. […]

[5] = Acid (1N HCl), listed as PRX-3140 Potassium Salt
[6] = Acid (1N HCl), listed as PRX-3140 potassium salt
[7] = Base (1N NaOH), listed as PRX-3140 Potassium Salt
[8] = Base (1N NaOH), listed as PRX-3140 potassium salt
[9] = Control (DI Water), listed as PRX-3140 Potassium Salt
[10] = Control (DI Water), listed as PRX-3140 potassium salt
[11] = H2O2 (3%), listed as PRX-3140 Potassium Salt
[12] = H2O2 (3%), listed as PRX-3140 potassium salt

For CC(C)n1c(=O)c(C(=O)NCCCN2CCCCC2)c([O-])c2ccsc21.[K+] [PRX-3140, 6,7-Dihydro-4-hydroxy-7-isopropyl-6-oxo-N-(3-(piperidin-1-yl)propyl)thieno[2,3-b]pyridine-5-carboxamide potassium salt], the “percent peak area at 250 nm, RRT 0.99” value ([1]; Acid (1N HCl)) was 0.07%, the “percent peak area at 250 nm, RRT 1.08” value ([1]; Acid (1N HCl)) was 0.11% and the “percent peak area at 250 nm, RRT 1.11” value ([1]; Acid (1N HCl)) was 0.04%. For the same compound, the “percent peak area at 250 nm, RRT 1.27” value ([1]; Acid (1N HCl)) was 0.04%, the “percent peak area at 250 nm, RRT 1.34” value ([1]; Acid (1N HCl)) was 0.15% and the “percent peak area at 250 nm, RRT 1.53” value ([1]; Acid (1N HCl)) was 0.43%. For the same compound, the “percent peak area at 250 nm, RRT 1.79” value ([1]; Acid (1N HCl)) was 0.04%, the “percent peak area at 250 nm, RRT 2.51” value ([1]; Acid (1N HCl)) was 0.06% and the “percent peak area at 250 nm, RRT 2.70” value ([1]; Acid (1N HCl)) was 0.13%. The “percent peak area at 250 nm, RRT 1.00 (purity of parent molecule)” value [1, 5] was 98.94%, the “percent peak area at 250 nm, RRT 1.05 (PRX-3140b)” value (“percent peak area … (PRX-3140b)” for short) [1, 5] was <0.03% and the “percent peak area at 250 nm, RRT 1.00 (purity of parent molecule)” value [1, 6] was 98.9%. The “percent peak area … (PRX-3140b)” value [1, 6] was < 0.03%, the “percent peak area at 250 nm, RRT 0.94” value ([1]; Base (1N NaOH)) was 0.28% and the “percent peak area at 250 nm, RRT 1.08” value ([1]; Base (1N NaOH)) was 0.12%. For the same compound, the “percent peak area at 250 nm, RRT 1.34” value ([1]; Base (1N NaOH)) was 0.16%, the “percent peak area at 250 nm, RRT 1.53” value ([1]; Base (1N NaOH)) was 0.42% and the “percent peak area at 250 nm, RRT 1.79” value ([1]; Base (1N NaOH)) was 0.05%. The “percent peak area at 250 nm, RRT 2.51” value ([1]; Base (1N NaOH)) was 0.05%, the “percent peak area at 250 nm, RRT 2.70” value ([1]; Base (1N NaOH)) was 0.12% and the “percent peak area at 250 nm, RRT 1.00 (purity of parent molecule)” value [1, 7] was 98.71%. The “percent peak area … (PRX-3140b)” value [1, 7] was <0.03%, the “percent peak area at 250 nm, RRT 1.00 (purity of parent molecule)” value [1, 8] was 98.7% and the “percent peak area … (PRX-3140b)” value [1, 8] was < 0.03%. For the same compound, the “percent peak area at 250 nm, RRT 1.08” value ([1]; Control (DI Water)) was 0.12%, the “percent peak area at 250 nm, RRT 1.11” value ([1]; Control (DI Water)) was 0.04% and the “percent peak area at 250 nm, RRT 1.34” value ([1]; Control (DI Water)) was 0.17%. For the same compound, the “percent peak area at 250 nm, RRT 1.53” value ([1]; Control (DI Water)) was 0.42%, the “percent peak area at 250 nm, RRT 1.71” value ([1]; Control (DI Water)) was 0.23% and the “percent peak area at 250 nm, RRT 1.79” value ([1]; Control (DI Water)) was 0.11%. The “percent peak area at 250 nm, RRT 1.93” value ([1]; Control (DI Water)) was 0.06%, the “percent peak area at 250 nm, RRT 2.51” value ([1]; Control (DI Water)) was 0.06% and the “percent peak area at 250 nm, RRT 2.70” value ([1]; Control (DI Water)) was 0.18%. The “percent peak area at 250 nm, RRT 1.00 (purity of parent molecule)” value [1, 9] was 98.60%, the “percent peak area … (PRX-3140b)” value [1, 9] was <0.03% and the “percent peak area at 250 nm, RRT 1.00 (purity of parent molecule)” value [1, 10] was 98.6%. For the same compound, the “percent peak area … (PRX-3140b)” value [1, 10] was < 0.03%, the “percent peak area at 250 nm, RRT 1.00 (purity of parent molecule)” value ([1]; Control (DI Water)) was 98.6% and the “percent peak area at 250 nm, RRT 0.78 (PRX-3140a)” value ([1]; H2O2 (3%)) was 8.49%. The “percent peak area at 250 nm, RRT 0.82” value ([1]; H2O2 (3%)) was 0.10%, the “percent peak area at 250 nm, RRT 1.08” value ([1]; H2O2 (3%)) was 0.19% and the “percent peak area at 250 nm, RRT 1.27” value ([1]; H2O2 (3%)) was 0.21%. For the same compound, the “percent peak area at 250 nm, RRT 1.34” value ([1]; H2O2 (3%)) was 0.09%, the “percent peak area at 250 nm, RRT 1.42” value ([1]; H2O2 (3%)) was 0.32% and the “percent peak area at 250 nm, RRT 1.53” value ([1]; H2O2 (3%)) was 0.42%. The “percent peak area at 250 nm, RRT 1.79” value ([1]; H2O2 (3%)) was 0.19%, the “percent peak area at 250 nm, RRT 2.70” value ([1]; H2O2 (3%)) was 0.11% and the “percent peak area at 250 nm, RRT 1.00 (purity of parent molecule)” value [1, 11] was 80.57%. For the same compound, the “percent peak area … (PRX-3140b)” value [1, 11] was 9.06%, the “percent peak area at 250 nm, RRT 1.00 (purity of parent molecule)” value [1, 12] was 80.6% and the “percent peak area … (PRX-3140b)” value [1, 12] was 9.1%. The “percent peak area at 250 nm, RRT 1.00 (purity of parent molecule)” value ([1]; H2O2 (3%)) was 80.6%, the “purity of the parent molecule PRX-3140” value [2] was 29.6% and the assay value ([3]; Exposed Sample (ICH Q1B light, 2 days)) was 94.20 % w/w. The “Water Content - KF” value ([3]; t = 0, listed as PRX-3140 potassium salt, potassium salt) was 0.900 % w/w, the “mean blood glucose level decrease compared to control values” (blood glucose) was −19.5% and the “affinity for more than 50 other receptors tested” value [4] was “no significant affinity”.
